Laboratory results: patent US12643867B2, “Compositions and uses thereof” (University of Virginia Patent Foundation, priority 2017, dated 2026)

How the values were obtained:
Type in all cases: cell-based
[1] = target: T1, recombinant hDGKa (Homo sapiens, UniProt P23743); assay: JWB003 labeling in live cells (in situ); conditions: 25 μM; transfected HEK293T cells
T1 construct: expressed in transfected cells; host or cells: HEK293T
Experimental: (§1) • 1. HEK293T cells were harvested in cold PBS. • a. Cells were transferred to Eppendorf tube. • 2. Cells were lysed via tip sonicator. • 3. Cells were fractionated into membrane and soluble fraction. • a. 100,000×G for 45 minutes at 4 degree. • b. Supernatant was separated from cell pellet. • 4. Dilute proteomes to 1 mg/mL in PBS and aliquot appropriate reaction volume (49 μL for probe only; 48 μL for competition+probe) • 5. Cells were treated with 50× inhibitor. • a. Incubated for 1Hr at 37 degree. • 6. Cells were treated with 50× Probe (JWB003). • a. Incubated for 1Hr at 37 degree. • 7. Add 6 μL of master mix to each alkyne probe-labeled sample. • a. 1 μL of 1.25 mM Rh-N3 • b. 1 μL of fresh 50 mM TCEP • c. 3 μL of 1.7 mM TBTA stock • d. 1 μL of 50 mM CuSO4 • 8. Vortex samples. • 9. Incubate at room temperature for 1 hr • 10. Quench with 17 μL of 4×SDS-PAGE loading buffer+βME and vortex tubes. • 11. Analyze 30 μL samples by SDS-PAGE immediately. [B] Labeling HEK293T Cells to Determine Target Proteins of JWB003 in Live Cells (In Situ) • 1. Complete media was removed from HEK293T cells and replaced with serum free media containing JWB003 at the appropriate final concentration • a. Cells were placed in incubator for appropriate time at 37 degree 5% CO2 • 2. Cells were washed • a. 2× warm PBS • b. 2× cold PBS • c. Harvest cells in cold PBS • 3. Cells were transferred to Eppendorf tube • 4. […]

[2] = test system: recombinant DGK isoforms (total of 10); assay: JWB003 labeling in live cells (in situ); conditions: live HEK293T cells
Experimental: as §1

[3] = target: T2, human PKCa (hPKCa) (Homo sapiens, UniProt P17252); assay: JWB003 labeling of C1 domain protein kinases; conditions: transfected HEK293T cells
T2 construct: expressed in transfected cells; host or cells: HEK293T
Experimental: as §1

[4] = test system: H1650 cells; assay: WST-1 Cell Proliferation Assay; conditions: ritanserin, ketanserin 5-50 μM; staurosporine 1 μM
Experimental: (§2) WST-1 Cell Proliferation Assays. Tumor cells were plated in transparent tissue-culture treated 96-well plates at a density of 100,000 cells/mL (A549, H1650) or 200,000 cells/mL (H82) in a volume of 100 μL per well. Cells were treated with dimethyl sulfoxide (DMSO) vehicle or inhibitors dissolved in DMSO at the indicated concentrations (final DMSO concentration of 0.5%). Cells were allowed to grow for indicated times at 37° C. under 5% CO2. Afterwards, equal parts of WST-1 developer reagent and electron mediator solution were mixed and 10 μL of the resulting solution (‘WST-1 reagent’) were added to each well. Plates were shaken in an orbital shaker for 60 s and then returned to the incubator for two hrs. Plates were again shaken followed measurement of absorbance at 450 nm. Data were normalized to DMSO-treated wells and significance values determined with one-way ANOVA.

[5] = test system: H82 cells; assay: WST-1 Cell Proliferation Assay; conditions: ritanserin, ketanserin 5-50 μM; staurosporine 1 μM
Experimental: as §2

[6] = test system: A549 cells; assay: WST-1 Cell Proliferation Assay; conditions: ritanserin, ketanserin 5-50 μM; staurosporine 1 μM
Experimental: as §2

[7] = test system: Bone Marrow Derived Macrophages (BMDMs), noncancerous primary cells; assay: WST-1 Cell Proliferation Assay; conditions: ritanserin highest concentration tested 50 μM; staurosporine 1 μM

T1 sequence (P23743 whole entry): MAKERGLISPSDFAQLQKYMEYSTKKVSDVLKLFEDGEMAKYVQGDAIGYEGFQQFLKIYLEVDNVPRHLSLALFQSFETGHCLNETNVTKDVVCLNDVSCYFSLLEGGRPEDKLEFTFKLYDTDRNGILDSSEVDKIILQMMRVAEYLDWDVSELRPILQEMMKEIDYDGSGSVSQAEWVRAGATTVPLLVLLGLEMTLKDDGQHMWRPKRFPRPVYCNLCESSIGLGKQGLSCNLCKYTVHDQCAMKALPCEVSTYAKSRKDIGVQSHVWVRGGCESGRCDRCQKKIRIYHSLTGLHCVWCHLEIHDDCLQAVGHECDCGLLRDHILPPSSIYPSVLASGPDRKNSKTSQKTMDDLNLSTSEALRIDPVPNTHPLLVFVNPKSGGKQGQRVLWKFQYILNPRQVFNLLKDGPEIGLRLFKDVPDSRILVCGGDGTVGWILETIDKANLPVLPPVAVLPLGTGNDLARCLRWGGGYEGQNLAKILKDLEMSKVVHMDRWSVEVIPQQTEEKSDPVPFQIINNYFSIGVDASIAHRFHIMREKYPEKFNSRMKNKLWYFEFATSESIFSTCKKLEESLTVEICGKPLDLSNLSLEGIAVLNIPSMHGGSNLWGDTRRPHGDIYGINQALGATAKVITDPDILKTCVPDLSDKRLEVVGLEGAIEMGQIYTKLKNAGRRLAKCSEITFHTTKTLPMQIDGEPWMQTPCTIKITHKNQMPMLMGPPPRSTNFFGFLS

Row | Structure (SMILES) | time at which probe labeling of hDGKa saturates [1] | labeling of recombinant DGK isoforms [2] | labeling of hPKCa [3] | cell viability (WST-1), words [4] | cell viability (WST-1), words [5] | cell viability (WST-1), words [6] | cell killing of noncancerous primary cells (WST-1), words [7]
1 | C#CCCC(=O)NCCN1CCN(C/C=C/C(=O)N2CCC(=C(c3ccc(F)cc3)c3ccc(F)cc3)CC2)CC1 [JWB003] | 60 min | effective labeling of all ten proteins in live cells | labeling of hPKCa in the membrane but not soluble fraction | – | – | – | –
2 | CN[C@@H]1C[C@H]2O[C@@](C)([C@@H]1OC)n1c3ccccc3c3c4c(c5c6ccccc6n2c5c31)C(=O)NC4 [Staurosporine] | – | – | – | general cytotoxicity across all cells tested | general cytotoxicity across all cells tested | general cytotoxicity across all cells tested | general cytotoxicity across all cells tested
